Assay results published in patent publication US9435792B2, “Hemolysis reagent composition for hemoglobin A1C quantitative analysis using enzymatic method” (I-Sens, Inc., priority 2012, dated 2016).

Test: Evaluation of solubility of surfactant
Assay type: physicochemical
Details: surfactant dissolved in distilled water to a concentration of 0.75 mg/mL
Procedure: In order to use a surfactant, it is essential that the solubility of a sample itself be excellent. First of all, if the sample is not dissolved it cannot be used at all, and thus the solubility of a surfactant was evaluated as a prerequisite.

Compound: CCCCCCCCCCCCCC(=O)NCCC[N+](C)(C)CCCS(=O)(=O)[O-] [Comp. Ex. 1]
- Solubility: ∘ (dissolved at a concentration of 0.75 mg/mL)
